Results on 4 sequences are retold here after patent publication US6962706B1, “Synthetic peptides containing protective epitopes for the treatment and prevention of periodontitis associated with porphyromonas gingivalis” (The University of Melbourne, priority 1999, dated 2005).

This assay has as its system serum IgG antibody (protective mouse sera, patient sera D20, D24, H10). Description: Epitope mapping ELISA of PIN-bound PrtR27 overlapping peptides with human and mouse antisera. The class given is binding. The settings on record: PIN-bound overlapping 13 mer peptides, antisera diluted 1:1000, O.D. 450 nm. From the text:
FIG. 6: Serum IgG antibody responses assessed by ELISA to Porphyromonas gingivalis PrtR-27 overlapping peptides (SEQ ID NOs:13-24, 33, and 25-32, respectively, from origin). Twenty one PIN-bound peptides were probed with normal mouse sera (▪), protective mouse sera (□), normal human serum (▪), patient D24 sera (▪), patient H10 sera (▪) and patient D20 sera (▪). ELISAs were developed as per Example 1.
Twenty overlapping 13 mer peptides (overlay by 6 and offset by 7 residues) corresponding to the N-terminal 148 residues of the PrtR27 were synthesised by Chiron Technologies (Melbourne, Australia) using the multipin peptide synthesis system. The sequence of the N-terminal 148 residues of the PrtR27 adhesin is as follows: • […] (SEQ ID NO: 12). The overlapping peptides synthesised were: • […] (SEQ ID NO:13) • […] (SEQ ID NO:14) • […] (SEQ ID NO:15) • […] (SEQ ID NO:16) • […] (SEQ ID NO:17) • […] (SEQ ID NO:18) • […] (SEQ ID NO:19) • […] (SEQ ID NO:20) • […] (SEQ ID NO:21) • […] (SEQ ID NO:22) • […] (SEQ ID NO:23) • […] (SEQ ID NO:24) • […] (SEQ ID NO:25) • […] (SEQ ID NO:26) • […] (SEQ ID NO:27) • […] (SEQ ID NO:28) • […] (SEQ ID NO:29) • […] (SEQ ID NO:30) • […] (SEQ ID NO:31) • […] (SEQ ID NO:32).
Epitope mapping of the pin-bound peptides was carried out by ELISA as per Chiron Technologies instructions using the human and mouse proteinase antisera at a dilution of 1:1000 in 1% w/v non-fat skim milk powder in 0.1M phosphate buffered saline, pH 7.4, containing 0.1% v/v Tween 20. The bound antibody was detected by incubating the peptide-PINS with 0.4 mM 3,3′,5,5′-tetramethylbenzidine in 0.1M sodium acetate/citric acid buffer containing 0.004% v/v H2O2. Colour development was stopped by the addition of 2M H2SO4. Optical density (O.D.) was measured at 450 nm using a BioRad microplate reader model 450.
On the technique in general: ELISA stands for enzyme-linked immunosorbent assay.
For the sequence “RYDDFTFEAGKKYTFTMRRAGMGDGTD (listed as Porphyromonas gingivalis) [EP5]”, the “Antibody binding of PrtR27 regions in ELISA (FIG. 6)” value (“Antibody binding of PrtR27 regions” below) was “bind antibody”.
“TNPEPASGKMWIAGDGGNQP (listed as Porphyromonas gingivalis) [EP4]”: the “Antibody binding of PrtR27 regions” value was “bind antibody”.
As for “FLLDADHNTFGSVIPATGPLFTGTASS (listed as Porphyromonas gingivalis) [EP1]”, the “Antibody binding of PrtR27 regions” value was “bind antibody”.
For “LYSANFESLIPANADPVVTTQNIIVTG (listed as Porphyromonas gingivalis) [EP2]”, the “Antibody binding of PrtR27 regions” value is reported as “bind antibody”.
